Data on twelve molecules can be found in patent US6716987B1, “Derivatives of benzofuran or benzodioxazole compounds” (Kyowa Hakko Kogyo Co., Ltd., priority 1995, dated 2004).

In one series the test system is TNF α production. Description: Suppression effect on TNF α production in the LPS induced mouse sepsis model. It counts as in vivo. Conditions: serum TNF α. The protocol:
Lipopolysaccharide (LPS, DIFCO Laboratories) was dissolved in physiological saline to make a final concentration of 0.2 mg/ml. The resulting solution was administered intravenously to the tail of Balb/c male mice (7-week-old) (Charls River Japan Co.) at 200 μl per 20 g body weight of 5 to 6 mice/group. One hour after administration, blood was drawn from a fundus oculi vein of each mouse to obtain serum. […] The concentration of TNF a in serum was measured by enzyme-linked immunosorbent assay (ELISA method) as follows: […] anti-mouse TNF a monoclonal antibody (Pharmingen Inc.) diluted with a phosphate buffer solution (PBS) was added to a 96-well microtiter plate (Nalge Nunc International immuno-plate <MaxiSorp=) at […]; allowed to stand at 4° C. for 12 hours for coating; mixed with […] of a phosphate buffer solution containing 1% bovine serum albumin (BSA) (1% BSA-PBS); allowed to stand at room temperature for 1 hour to block the non-specific binding; washed with phosphate buffer solution; mixed with […] of the subject serum diluted two-fold with 1% BSA-PBS; and allowed to stand at room temperature for 2 hours. Furthermore, recombinant mouse TNF α (Genzyme Corp.) diluted with 1% BSA-PBS was similarly treated and used as a standard substance. These plates were washed three times with PBS (0.05% Tween-PBS) containing 0.05% polyoxyethylenesorbitan monolaurate (Tween 20, Wako Pure Chemical Industries, Ltd.), mixed with […] of biotin-labelled anti-mouse TNF α monoclonal antibody (Method A: Pharmingen Inc.; Method B: Genzyme Corp) diluted with 1% BSA-PBS to make a concentration of 1 mg/ml, allowed to stand at room temperature for 1 hour, washed three times with 0.05% Tween-PBS, mixed with […] of horseradish peroxidase avidin D (Vector Laboratories Inc.) diluted four-thousand-fold with 1% BSA-PBS, and allowed to stand at room temperature for 30 min. Finally, these plates were washed three times with 0.05% Tween-PBS, and mixed with […] of 3,3′,5,5′-tetramethylbenzidine. After color development, the reaction was stopped by adding […] of 10% sulfuric acid solution, and then, the absorbance at 450 nm was measured. The concentration of TNF α in serum was calculated from a calibration curve.
The rate of suppression of each test compound on TNF α production was obtained from the following formula:
Suppression rate=(A−B)/A,
wherein A is the TNF α concentration of the control group and B is the TNF α concentration of the experimental group.
In the above formula, the TNF α concentration of the control group is defined as the value obtained in the absence of the test compound (0.5% methyl cellulose solution alone).
Employed as the reference compounds were 7-methoxy-4-[1-oxo-2-(4-pyridyl)ethyl]-spiro[2,3-dihydrobenzofuran-2,1′-cyclopentane] hydrochloride (disclosed in Example 100 of Japanese Patent Laid-Open No. 8-836624 and hereinafter referred to as Compound RA) having the formula (RA) and 2-benzoyl-4-(3,5-dichloro-4-pyridyl)aminocarbonyl)-7-methoxybenzofuran (disclosed in Example 35 of Japanese Patent Laid-Open No. 8-534708 and hereinafter referred to as Compound RB) having the formula (RB): [drawing 660]

The next series has as its system Sunkus murinus. Description: Effect on vomiting induction in male Sunkus murinus. In kind it is in vivo. Conditions: dose 10 mg/kg i.p., observed for 1 hour after administration. The protocol: Five to fifteen male Sunkus murinus per group weighing approximately 60 g were used for the test. According to the method of Matsumoto, et. al. [Japan J. Pharmacol., 48, 303 (1988)], Sunkus murinus were placed separately into metal wire cages (width 15 cm×length 21 cm×height 15 cm). Each sample of the test compound was suspened in a 0.5% Tween 80 physiological saline solution and administered intraperitoneally (i.p.) at a dose of 10 ml/kg. […] In the group that was administered the test-compound, the results are represented as the number of vomiting animals/the number of experimental animals. Compound RA was employed as a reference compound.

In series [1] the test system is neutrophil and eosinophil accumulation. Description: Effect on neutrophil and eosinophil accumulation in BN rats. It counts as in vivo, rat. The following applies: dose of 30 mg/kg p.o.; BALF 24 hours after antigen. Here is the method:
The Howell et al's method (Pulmonary Pharmacology, 8, […] (1995)) was partly modified and used for the active sensitization and the antigen exposure.
Oval albumin (OA) (1 mg) and aluminium hydroxide (200 mg) were subcutaneously injected into male Brown-Norway rats (6 week-age, Nippon Charles River), to which were intra abdominally administered dead cells of Bordetella pertussis for the active sensitization of the rats. After 14 days, the rats were put into a plastic chamber (30×50×30 cm), and left to inspire a 1% (w/v) OA solution for 10 minutes for antigen induction. For the inspiration, used was an ultrasonic nebulizer (NE-U12, by Omron, Tokyo).
The test compound was suspended in 0.5% methyl cellulose, and orally administered (p.o.) to the rats one hour prior to the antigen challenge. The group of the rats to which 0.5% methyl cellulose was administered and which were left to inspire OA was referred to as OA Group, while the group of the rats which were left to inspire a physiological saline solution in place of OA was referred to as Saline Group.
After 24 hours from the antigen induction, bronchoalveolar lavage (BAL) was performed. […] Then, the number of all leukocytes existing in the resulting suspension was counted, using an automatic leukocyte counter (Celltac α MEK-6158, by Nippon Koden, Tokyo). […]

Setting [2] is: Method A, dose 10 mg/kg orally 90 min before LPS.
[3] abbreviates: Method B, dose 30 mg/kg orally 90 min before LPS.

The melting point is the temperature, or range, at which the solid turns liquid.

Turning to “7-(4-carboxy-4-pyridyl)-4-methoxy-spiro[1,3-benzodioxole-2,1=-cyclopentane] [Compound 203]”, the “Suppression rate (%)” value in the series with TNF α production (setting [2]) was 100%. Also, the “Number of vomiting animals/Number of experimental animals” value in the series on Sunkus murinus was 1/5.
As to `COc1ccc(C(=O)Nc2c(Cl)cncc2Cl)c2cc(C(=O)N3CCN(C)CC3)oc12` [Compound 201, 4-(3,5-dichloro-4-pyridyl)aminocarbonyl-7-methoxy-2-(4-methyl-1-piperazinyl)carbonylbenzofuran], the “Suppression rate (%)” value with TNF α production (setting [2]) was 70%. Also, in the series on Sunkus murinus, the “Number of vomiting animals/Number of experimental animals” value is recorded as 0/5.
Turning to `COc1ccc(C(=O)Nc2c(Cl)cncc2Cl)c2cc(C(=O)N3CCN(CCO)CC3)oc12` [Compound 202, 4-(3,5-dichloro-4-pyridyl)aminocarbonyl-7-methoxy-2-[4-(2-hydroxyethyl)-1-piperazinyl]carbonylbenzofuran], the “Suppression rate (%)” value in the series on TNF α production (setting [2]) came to 92%. Also, the “Number of vomiting animals/Number of experimental animals” value in the series on Sunkus murinus is reported as 0/5.
In turn, `COc1ccc(-c2ccc(C(=O)O)cc2)c2c1OC(C)(C)O2` [Compound 204, 7-(4-carboxyphenyl)-2,2-dimethyl-4-methoxy-1,3-benzodioxole] had a melting point of 237 to 239 °C. In the series on TNF α production (setting [2]), the “Suppression rate (%)” value was 79%. Besides, the “Number of vomiting animals/Number of experimental animals” value in the series with Sunkus murinus is recorded as 2/5.
For the molecule `COc1ccc(-c2cnccc2C)c2c1OC1(CCCC1)O2` [Compound 205, 4-methoxy-7-(4-methyl-3-pyridyl)-spiro[1,3-benzodioxole-2,1′-cyclopentane]], in the series on TNF α production (setting [2]), the “Suppression rate (%)” value came out at 79%. Also, in the series with Sunkus murinus, the “Number of vomiting animals/Number of experimental animals” value is given as 0/5.
On to `COc1ccc(C(=O)Cc2c(Cl)cncc2Cl)c2cc(C(=O)N3CCN(C)CC3)oc12` [Compound 206], for which, in the series with TNF α production (setting [3]), the “Suppression rate (%)” value was 65%. Moreover, in the series with Sunkus murinus, the “Number of vomiting animals/Number of experimental animals” value was 0/5.
In the case of `COc1ccc(C(=O)Cc2c(Cl)cncc2Cl)c2cc(C(=O)N3CCN(CCO)CC3)oc12` [Compound 207, 4-[2-(3,5-Dichloro-4-pyridyl)-1-oxoethyl]-2-[4-(2-hydroxyethyl)-1-piperazinylcarbonyl]-7-methoxybenzofuran], in the series with TNF α production (setting [3]), the “Suppression rate (%)” value worked out at 65%. Besides, the “Number of vomiting animals/Number of experimental animals” value in the series on Sunkus murinus is reported as 0/5.
For the molecule `COc1ccc(C(=O)Nc2c(Cl)cncc2Cl)c2cc(C(=O)CCCN3CCOCC3)oc12` [Compound 213, N-(3,5-Dichloropyridin-4-yl)-2-(4-morpholino)butyryl-7methoxybenzofuran-4-carboxamide], the “Suppression rate (%)” value with TNF α production (setting [3]) is listed as 65%. Besides, the “Number of vomiting animals/Number of experimental animals” value with Sunkus murinus was 0/5.
On to `COc1ccc(C(=O)Nc2c(Cl)cncc2Cl)c2cc(C(=O)CCCN3CCN(C)CC3)oc12` [Compound 214, N-(3,5-dichloropyridin-4-yl)-2-[4-(4-methyl-1-piperazinyl)]-butyryl-7-methoxybenzofuran-4-carboxamide], for which the “Suppression rate (%)” value in the series on TNF α production (setting [3]) was found to be 65%. The “Number of vomiting animals/Number of experimental animals” value with Sunkus murinus is 3/5.
Take `COc1ccc(C(=O)Cc2c(Cl)cncc2Cl)c2cc(C(=O)NCCN3CCOCC3)oc12` [Compound 216, N-(2-morpholinoethyl)-4-[2-(3,5-dichloropyridin-4-yl)-1-oxo]ethyl-7-methoxybenzofuran-2-carboxamide]: the “Suppression rate (%)” value with TNF α production (setting [2]) came to 75%. The “Number of vomiting animals/Number of experimental animals” value in the series on Sunkus murinus is 0/5. Moreover, in series [1], the “inhibiting activity against eosinophils” value is 100% and the “inhibiting activity against neutrophils” value came out at 92%.
Consider `COc1ccc(C(=O)Cc2ccncc2)c2c1OC1(CCCC1)C2.Cl` [RA, 7-methoxy-4-[1-oxo-2-(4-pyridyl)ethyl]-spiro[2,3-dihydrobenzofuran-2,1′-cyclopentane] hydrochloride, reference compound], for which the “Suppression rate (%)” value with TNF α production (setting [2]) and with TNF α production (setting [3]) was 81% in each case. Besides, in the series on Sunkus murinus, the “Number of vomiting animals/Number of experimental animals” value was 5/5.
For the molecule `COc1ccc(C(=O)Nc2c(Cl)cncc2Cl)c2cc(C(=O)c3ccccc3)oc12` [RB, reference compound], the “Suppression rate (%)” value in the series with TNF α production (setting [2]) is 48%; in the series with TNF α production (setting [3]), 30%. Also, the “Number of vomiting animals/Number of experimental animals” value with Sunkus murinus is 0/5.
